Reference: patent US12721342B2, “Agricultural composition of indoleacetic acid having increased photostability, process for the production and use thereof” (TOTAL BIOTECNOLOGIA INDÚSTRIA E COMÉRCIO S/A, priority 2021, dated 2026)

Experiments:
[1] = Photostability to UV light, first assay (IAA concentration by Salkwolski reagent); format: physicochemical
Protocol: For validating the formulation that guarantees photostability of the indoleacetic acid phytohormone, two procedures were carried out. In the first assay, the following was compared: i) synthetic IAA with water (with no protection from melanoidins); ii) synthetic IAA with the same culture medium used in the biological IAA production process of the present invention and iii) biological IAA; all samples being subjected to the sterilization process at 121° C. for approximately 1 hour, as claimed for the stabilization of indole compounds due to the production of melanoidins via Maillard reaction. After the period of time required for stabilization, IAA concentrations were assessed using Salkwolski reagent according to the methodology proposed by Glickmann and Dessaux (1994).

[2] = depending on the wavelength and intensity; cited from earlier work

photodegradation ([1]; 1 hour of exposure to UV light, samples sterilized at 121° C. for approximately 1 hour) [%] | degradation by UV light (in words) ([1]; after 4 hours of exposure to UV light) | SMILES | reduction of IAA by light decomposition [2]
74.5 | fully degraded | O=C(O)Cc1c[nH]c2ccccc12 [indoleacetic acid] | –
– | – | O=C(O)Cc1c[nH]c2ccccc12 [IAA, indoleacetic acid] | up to 90%
